In article PMC7794297:
Like-named read-outs stand apart in the source and are kept apart here.

What was measured:
[1] = target: T1, glucose oxidase (GOx) (Aspergillus niger, UniProt P13006); assay: GOx-DCL in presence of DTNB; set-up: purchased Sigma Aldrich; conditions: large excess of DTNB
Description: The equilibration of the DCL was completed after 24 h (Fig. 9) and the oligomers were identified by HPLC-MS (Supplementary Figs. 4–20). The precise composition of the DCL (with and without GOx), was assessed by measuring the relative peak area (RPA). The normalized change of RPA was used to quantify the protein influence in the final DCL showing the amplification of the dimer of compound 4, that is (4)2 (Fig. 9b). Control experiments were set up to verify that the amplification of the dimer was not due to unspecific binding. Firstly the GOx was replaced by the bovine serum albumin (BSA). A stability study of BSA under the DCL conditions was performed using a fluorescence technique confirming the BSA stability in the DCL experiment (Supplementary Fig. 48)[50].
% v/v DMSO (266 µL). The DCL was stabilized for 24 hours at 6 °C. Then, BS A was removed by ultracentrifugation thr ough an Amicon ultra -filter (10 KDa) and the solution was analyzed by […]
GOx-DCL in presence of DTNB.
GOx- directed DCL: Dithiols 1-2 […]
To elucídate the type of inhibitor, Lineweaver-Burk plot were performed. GOx activity was measured at increasing concentration s of glucose (0.2 mM to 4 mM) and in presence and absence of (4)2 and DTNB. According to fluorescence s tudies and their Kd’ values, the concentration of the inhibitors were chosen. […]
IC50 was determined using different concentrations of inhibitors DTNB and (4)2. […]

[2] = target: T1, glucose oxidase (GOx); assay: Tryptophan fluorescence emission binding experiments with GOx; set-up: purchased Sigma Aldrich; conditions: for Kd: GOx 0.8 µM, Tris pH 7.8, 5% DMSO, 10 °C
[3] = target: T1, glucose oxidase (GOx); assay: GOx activity assay, glucose oxidase-horseradish peroxidase coupled system with o-dianisidine; type: biochemical; set-up: purchased Sigma Aldrich; conditions: for 1/Vo: Lineweaver-Burk;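 on GOx activity: GOx activity followed by o-dianisidine absorbance at 500 nm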
[4] = target: apo and holo GOx; set-up: method as in PMID 10491329; conditions: apo and holo GOx forms; cited from earlier work
[5] = [DTNB] 8 uM, Supplementary Figure 52 c
[6] = [DTNB] 40 uM, Supplementary Figure 52 c
[7] = [DTNB] 80 uM, Supplementary Figure 52 c
[8] = [DTNB] 200 uM, Supplementary Figure 52 c
[9] = [DTNB] 400 uM, Supplementary Figure 52 c
[10] = [Glucose] 1.6 μM, Supplementary Figure 52 a
[11] = [Glucose] 32 μM, Supplementary Figure 52 a
[12] = [Glucose] 48 μM, Supplementary Figure 52 a
[13] = [Glucose] 400 μM, Supplementary Figure 52 a
[14] = [Glucose] 800 μM, Supplementary Figure 52 a
[15] = [Glucose] 2000 μM, Supplementary Figure 52 a
[16] = [Glucose] 4000 μM, Supplementary Figure 52 a
[17] = [Glucose] 8000 μM, Supplementary Figure 52 a
[18] = [Glucose] 12000 μM, Supplementary Figure 52 a
[19] = [Glucose] 20000 μM, Supplementary Figure 52 a

T1 sequence (P13006 17-605): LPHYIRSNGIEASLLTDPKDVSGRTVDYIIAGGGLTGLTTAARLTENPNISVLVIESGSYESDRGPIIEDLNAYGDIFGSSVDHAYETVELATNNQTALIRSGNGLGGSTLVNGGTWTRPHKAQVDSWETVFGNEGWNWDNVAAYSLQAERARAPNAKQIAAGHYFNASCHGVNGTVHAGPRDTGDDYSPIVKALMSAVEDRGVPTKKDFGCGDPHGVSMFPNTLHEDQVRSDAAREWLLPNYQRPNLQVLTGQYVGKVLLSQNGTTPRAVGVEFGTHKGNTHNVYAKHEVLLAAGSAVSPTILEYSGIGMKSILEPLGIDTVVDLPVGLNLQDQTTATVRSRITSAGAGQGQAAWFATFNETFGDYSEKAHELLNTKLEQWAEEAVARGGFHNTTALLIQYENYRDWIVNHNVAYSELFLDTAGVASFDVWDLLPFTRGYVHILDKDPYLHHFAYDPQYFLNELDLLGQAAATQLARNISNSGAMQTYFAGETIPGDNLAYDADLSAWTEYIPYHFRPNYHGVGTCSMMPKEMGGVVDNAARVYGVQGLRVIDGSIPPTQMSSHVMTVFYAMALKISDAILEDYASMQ

SMILES: O=C(O)c1cc(SSc2ccc([N+](=O)[O-])c(C(=O)O)c2)ccc1[N+](=O)[O-] [DTNB, 5,5′-dithiobis-2-nitrobenzoic acid, reference compound]
- effect on GOx-directed DCL [1]: prevented the amplification of any other ligands except DTNB
- Emission Average [2, 5]: 1800741
- Normalized Fluorescence [2, 5]: 0.1466
- Emission Average [2, 6]: 955958
- Normalized Fluorescence [2, 6]: 0.5470
- Emission Average [2, 7]: 361199
- Normalized Fluorescence [2, 7]: 0.8288
- Emission Average [2, 8]: 25171.8
- Normalized Fluorescence [2, 8]: 0.9881
- Emission Average [2, 9]: 521.51
- Normalized Fluorescence [2, 9]: 0.9998
- Kd ([2]; apparent dissociation constant, read-out: Kd'): 64 ± 2 µM
- GOx Activity ([3]; IC50 data, inhibitor 1.4 nM, glucose 10 mM): 0.0674 min⁻¹
- GOx Activity ([3]; IC50 data, inhibitor 3.5 nM, glucose 10 mM): 0.0701 min⁻¹
- GOx Activity ([3]; IC50 data, inhibitor 7.0 nM, glucose 10 mM): 0.063 min⁻¹
- GOx Activity ([3]; IC50 data, inhibitor 14.0 nM, glucose 10 mM): 0.0639 min⁻¹
- GOx Activity ([3]; IC50 data, inhibitor 70.0 nM, glucose 10 mM): 0.0603 min⁻¹
- GOx Activity ([3]; IC50 data, inhibitor 140.0 nM, glucose 10 mM): 0.0454 min⁻¹
- GOx Activity ([3]; IC50 data, inhibitor 700.0 nM, glucose 10 mM): 0.0399 min⁻¹
- GOx Activity ([3]; IC50 data, inhibitor 1400.0 nM, glucose 10 mM): 0.0322 min⁻¹
- GOx Activity ([3]; IC50 data, inhibitor 1428571.0 nM, glucose 10 mM): 0.0388 min⁻¹
- GOx Activity ([3]; Ki data, inhibitor 3,5·10^-8 M, [Glucose] 0.0002 M): 0.0024 min⁻¹
- GOx Activity ([3]; Ki data, inhibitor 3,5·10^-8 M, [Glucose] 0.0007 M): 0.0073 min⁻¹
- GOx Activity ([3]; Ki data, inhibitor 3,5·10^-8 M, [Glucose] 0.0014 M): 0.013 min⁻¹
- GOx Activity ([3]; Ki data, inhibitor 3,5·10^-8 M, [Glucose] 0.0028 M): 0.0254 min⁻¹
- GOx Activity ([3]; Ki data, inhibitor 3,5·10^-8 M, [Glucose] 0.004 M): 0.0298 min⁻¹
- GOx Activity ([3]; Ki data, inhibitor 7·10^-8 M, [Glucose] 0.0002 M): 0.0022 min⁻¹
- GOx Activity ([3]; Ki data, inhibitor 7·10^-8 M, [Glucose] 0.0007 M): 0.0054 min⁻¹
- GOx Activity ([3]; Ki data, inhibitor 7·10^-8 M, [Glucose] 0.0014 M): 0.0121 min⁻¹
- GOx Activity ([3]; Ki data, inhibitor 7·10^-8 M, [Glucose] 0.0028 M): 0.0197 min⁻¹
- GOx Activity ([3]; Ki data, inhibitor 7·10^-8 M, [Glucose] 0.004 M): 0.0279 min⁻¹
- GOx Activity ([3]; Ki data, inhibitor 14·10^-8 M, [Glucose] 0.0002 M): 0.0008 min⁻¹
- GOx Activity ([3]; Ki data, inhibitor 14·10^-8 M, [Glucose] 0.0007 M): 0.004 min⁻¹
- GOx Activity ([3]; Ki data, inhibitor 14·10^-8 M, [Glucose] 0.0014 M): 0.0074 min⁻¹
- GOx Activity ([3]; Ki data, inhibitor 14·10^-8 M, [Glucose] 0.0028 M): 0.015 min⁻¹
- GOx Activity ([3]; Ki data, inhibitor 14·10^-8 M, [Glucose] 0.004 M): 0.0236 min⁻¹
- 1/Vo ([3]; inhibitor 0,07 µM, 1/[glucose] 250 M-1): 32.9749 min
- 1/Vo ([3]; inhibitor 0,07 µM, 1/[glucose] 357 M-1): 56.0355 min
- 1/Vo ([3]; inhibitor 0,07 µM, 1/[glucose] 714 M-1): 65.6495 min
- 1/Vo ([3]; inhibitor 0,07 µM, 1/[glucose] 1430 M-1): 135.55 min
- 1/Vo ([3]; inhibitor 0,07 µM, 1/[glucose] 5000 M-1): 532.407 min
- 1/Vo ([3]; inhibitor 0,14 µM, 1/[glucose] 250 M-1): 37.1744 min
- 1/Vo ([3]; inhibitor 0,14 µM, 1/[glucose] 357 M-1): 57.2815 min
- 1/Vo ([3]; inhibitor 0,14 µM, 1/[glucose] 714 M-1): 76.102 min
- 1/Vo ([3]; inhibitor 0,14 µM, 1/[glucose] 1430 M-1): 148 min
- 1/Vo ([3]; inhibitor 0,14 µM, 1/[glucose] 5000 M-1): 505.051 min
- Inhibitor Type ([3]; Lineweaver–Burk plots): non-competitive
- Ki ([3]; non-competitive inhibition model, 37 °C, sodium acetate buffer pH 5.1): 0.2 ± 0.02 µM

SMILES: OC[C@H]1O[C@@H](O)[C@H](O)[C@@H](O)[C@@H]1O [β-D-glucose]
- Kd [4]: ~10000 µM
- Kd ([2]; read-out: apparent dissociation constant): 1100 ± 20 µM
- Emmsion average [2, 10]: 4205310
- Normalized Fluorescence [2, 10]: 0.03401
- Emmsion average [2, 11]: 4080311
- Normalized Fluorescence [2, 11]: 0.00328
- Emmsion average [2, 12]: 4060405
- Normalized Fluorescence [2, 12]: -0.00162
- Emmsion average [2, 13]: 4998302
- Normalized Fluorescence [2, 13]: 0.229
- Emmsion average [2, 14]: 5886318
- Normalized Fluorescence [2, 14]: 0.4473
- Emmsion average [2, 15]: 6538644
- Normalized Fluorescence [2, 15]: 0.6077
- Emmsion average [2, 16]: 6499875
- Normalized Fluorescence [2, 16]: 0.5982
- Emmsion average [2, 17]: 5944287
- Normalized Fluorescence [2, 17]: 0.4616
- Emmsion average [2, 18]: 7469372
- Normalized Fluorescence [2, 18]: 0.8366
- Emmsion average [2, 19]: 7323012
- Normalized Fluorescence [2, 19]: 0.8006
